In data set [1] the test system is Huh7 cells. The data set can be described thus: cell penetration, fluorescence and confocal microscopy. The class given is cell-based, human. Conditions: Huh7, 37°C. The protocol: Table S.7. Parameters used for the non-linear fit for the plot of the competition binding experiment.
(§1) Cell Culture and Treatment. HepG2 (expressing wild-type p53) and Huh7 (expressing mutant p53) cell lines were purchased from the American Type Culture Collection (ATCC) and cultured as monolayers in Dulbecco’s modified Eagle’s medium (DMEM) (Invitrogen) supplemented with 100 mM nonessential amino acid solution, 100 mM sodium pyruvate, 100 U/mL penicillin, 100 μg/mL streptomycin, and 10% heat inactivated fetal bovine serum (FBS) (all from Hyclone).
(§2) Cells were maintained at 37° C and 5% CO2 and were treated with media that contained 0.5%
(§3) FBS. Nutlin-3 (Sigma) was dissolved in 0.01% DMSO (Sigma). This concentration of DMSO did not affect the cell phenotype. Both nutlin-3 and spiroligomers were added into the medium for final concentrations of 2 µM, 5 µM, 10 µM and 20 µM for 24 hours. For the western blot experiments detailed below, the time length for incubation with bis-peptide was 17 hours.
Fluorescence and Confocal Microscopy. Fluorescence and confocal microscopy were applied to live and fixed cells. Cells were grown on glass chambers and fixed with ice-cold 95:5 ethanol/acetic acid for 10 minutes at -20 °C. […] Fluorescent specimens were analyzed using an ECLIPSE Ti microscope (Nikon), lenses with hardened […]
Western Blotting. […] Images were quantified using ImageJ software (NIH). […]

In data set [2] the test system is HepG2 cells. The data set can be described thus: cell penetration, fluorescence and confocal microscopy; active vs. passive transport. The class given is cell-based, human. To be noted: HepG2, 37°C, 5 µM, 3.75 hours. As for the experimental part:
as §1, §2, §3
Fluorescence and Confocal Microscopy. Fluorescence and confocal microscopy were applied to live and fixed cells. Cells were grown on glass chambers and fixed with ice-cold 95:5 ethanol/acetic acid for 10 minutes at -20 °C. Sections were washed with PBS and mounted in Vectashield aqueous mounting medium with DAPI (Vector laboratories). Fluorescent specimens were analyzed using an ECLIPSE Ti microscope (Nikon), lenses with hardened […]
(1 picture or pasted object on this page, not shown here) […]
filters (Nikon), and a Nikon DS-Fi1 camera, which was operated by NIS Elements computer software (Nikon). Confocal microscopy was performed with a Leica SP-1 microscope, with illumination at 488 nm and spectral detection. […]
Mathematical model described8 and MxPro software (Stratagene) were used to process PCR data. End-point PCR reactions were assayed with PCR Master Mix (Promega). Samples were amplified in 34 cycles; each cycle consisted of 30 sec of denaturation at 95 °C, 30 sec of annealing at 60 °C, and 30 sec of elongation at 72 °C. After 34 cycles, samples were subjected to final elongation for 5 minutes at 72 °C. […]
fluorescence in the images.

Structures are written as SMILES. “Also recorded” adds a separate entry of the source.

For the molecule `O=C1OC2(c3ccc(O)cc3Oc3cc(O)ccc32)c2ccccc21` [fluorescein, reference compound], the “uptake of fluorescence (control)” value is reported as “no visible uptake of fluorescence” in data set [1] and “no visible uptake of fluorescence; also recorded: failed to produce any fluorescence” in data set [2].

Source of the values: PMC3475717, “A Spiroligomer α-Helix Mimic That Binds HDM2, Penetrates Human Cells and Stabilizes HDM2 in Cell Culture” (PLoS ONE, 2012).
